Source: patent US20220339136A1, “LIPOSOMAL TROPONOID COMPOUND FORMULATIONS” (United States Government As Represented By The Department …, priority 2019, published 2022)

Experiments:
[1] = system: Vancomycin Intermediate Staphylococcus aureus (VISA) strain AR228; settings: cited from earlier work; note: key: R: resistance; S: sensitive; I: intermediate; NS: nonsusceptible
[2] = system: Vancomycin Intermediate Staphylococcus aureus (VISA) strain AR219; settings: cited from earlier work; note: key: R: resistance; S: sensitive; I: intermediate; NS: nonsusceptible
[3] = system: WT S. aureus (ATCC 25923); settings: cited from earlier work
[4] = system: Sa #10, mupirocin-resistant MDRSA; assay: Killing of drug-resistant bacteria Sa #10; format: cell-based, Staphylococcus aureus; settings: troponoids formulated as liposomes
[5] = system: multidrug-resistant Staphylococcus. aureus (MDRSA), including methicillin-resistant S. aureus (MRSA) strains; settings: cited from earlier work
[6] = system: mammal cell lines; settings: cited from earlier work
[7] = system: S. aureus; settings: cited from earlier work
[8] = insoluble as defined herein (less than 10 mg/l); cited from earlier work
[9] = system: S. aureus; settings: 4×MIC, in vitro; cited from earlier work
[10] = Solubility; format: physicochemical

Molecule | Antimicrobial susceptibility testing pattern (AST) [1] | Antimicrobial susceptibility testing pattern (AST) [2] | Antimicrobial susceptibility testing pattern (AST) [3] | further results
CC[C@H]1OC(=O)[C@H](C)[C@@H](O[C@H]2C[C@@](C)(OC)[C@@H](O)[C@H](C)O2)[C@H](C)[C@@H](O[C@@H]2O[C@H](C)C[C@H](N(C)C)[C@H]2O)[C@](C)(O)C[C@@H](C)C(=O)[C@H](C)[C@@H](O)[C@]1(C)O [ERY, Erthromycin] | R | R | S | 
CO[C@@]1(NC(=O)Cc2cccs2)C(=O)N2C(C(=O)O)=C(COC(N)=O)CS[C@@H]21 [FOX, Cefoxitin] | R | R | Neg | 
CC(=O)NC[C@H]1CN(c2ccc(N3CCOCC3)c(F)c2)C(=O)O1 [LZD, Linezolid] | S | S | S | 
C/C(=C\C(=O)OCCCCCCCCC(=O)O)C[C@@H]1OC[C@H](C[C@@H]2O[C@H]2[C@@H](C)[C@H](C)O)[C@@H](O)[C@H]1O [MUP, Mupirocin] | R |  |  | 
Cc1onc(-c2ccccc2)c1C(=O)N[C@@H]1C(=O)N2[C@@H]1SC(C)(C)[C@@H]2C(=O)O [OXA, Oxacillin] | R | R | S | 
CO[C@H]1/C=C/O[C@@]2(C)Oc3c(C)c(O)c4c(O)c(c(/C=N/N5CCN(C)CC5)c(O)c4c3C2=O)NC(=O)/C(C)=C\C=C\[C@H](C)[C@H](O)[C@@H](C)[C@@H](O)[C@@H](C)[C@H](OC(C)=O)[C@@H]1C [RIF, Rifampin] | S | R | S | 
CN[C@H](CC(C)C)C(=O)N[C@H]1C(=O)N[C@@H](CC(N)=O)C(=O)N[C@H]2C(=O)N[C@H]3C(=O)N[C@H](C(=O)N[C@H](C(=O)O)c4cc(O)cc(O)c4-c4cc3ccc4O)[C@H](O)c3ccc(c(Cl)c3)Oc3cc2cc(c3O[C@@H]2O[C@H](CO)[C@@H](O)[C@H](O)[C@H]2O[C@H]2C[C@](C)(N)[C@H](O)[C@H](C)O2)Oc2ccc(cc2Cl)[C@H]1O [VAN, Vancomycin] | I | I | S | 
COc1ccccc1C(=O)Oc1cccccc1=O [compound 285] |  |  |  | killing of mupirocin-resistant MDRSA Sa #10 [4]: can kill; inhibition of MDRSA including MRSA strains [5]: can inhibit; CC50 [6]: > 100 µM; MIC [7]: less than 5 μg/mL; solubility in water (reportedly) [8]: insoluble; incubation time to completely kill S. aureus [9]: 5 to 8 h; solubility in DMSO ([10]; DMSO, Gentamicin at 10 mg/mL): can be dissolved; solubility in water ([10]; water): not quite soluble
Daptomyxin |  |  | S | 
Gentamicin | S | R | S | 
Penicillin | R | R |  | 
Trimethoprim-sulfamethoxazole [SXT] | S | S | S | 
